Laboratory results as given in ChEMBL document CHEMBL1201862, “PubChem BioAssay data set” (2004).
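The compound was tested at five concentrations on cells cultured in 96-well plates, with a 48-hour exposure period. GI50 is the concentration that inhibits growth by half.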 Activity calls are given as the source filed them. Rule as the data show it: active = GI50 up to about 1.1 µM and inactive = higher.

Experiments:
Assay in all cases: NCI anticancer screen, dose series, 48 h
[1] = test system: 786-0
[2] = test system: A498
[3] = test system: A549
[4] = test system: ACHN
[5] = test system: BT-549
[6] = test system: CAKI-1
[7] = test system: CCRF-CEM
[8] = test system: COLO 205
[9] = test system: DLD-1
[10] = test system: DMS-114
[11] = test system: DMS-273
[12] = test system: DU-145
[13] = test system: EKVX
[14] = test system: HCC 2998
[15] = test system: HCT-116
[16] = test system: HCT-15
[17] = test system: HL-60
[18] = test system: HOP-18
[19] = test system: HOP-62
[20] = test system: HOP-92
[21] = test system: HT-29
[22] = test system: Hs-578T
[23] = test system: IGROV-1
[24] = test system: K562
[25] = test system: KM-20L2
[26] = test system: KM12
[27] = test system: LOX IMVI
[28] = test system: LXFL 529
[29] = test system: M14
[30] = test system: M19-MEL
[31] = test system: MCF7
[32] = test system: MDA-MB-231
[33] = test system: MDA-MB-435
[34] = test system: MDA-N
[35] = test system: MOLT-4
[36] = test system: Malme-3M
[37] = test system: NCI-H226
[38] = test system: NCI-H23
[39] = test system: NCI-H460
[40] = test system: NCI-H522
[41] = test system: NCI/ADR-RES
[42] = test system: OVCAR-3
[43] = test system: OVCAR-4
[44] = test system: OVCAR-5
[45] = test system: OVCAR-8
[46] = test system: PC-3
[47] = test system: RPMI-8226
[48] = test system: RXF 393
[49] = test system: SF-268
[50] = test system: SF-295
[51] = test system: SF-539
[52] = test system: SK-MEL-28
[53] = test system: SK-MEL-2
[54] = test system: SK-MEL-5
[55] = test system: SK-OV-3
[56] = test system: SN12C
[57] = test system: SNB-19
[58] = test system: SNB-75
[59] = test system: SNB-78
[60] = test system: SR
[61] = test system: SW-620
[62] = test system: T47D
[63] = test system: TK-10
[64] = test system: U-251
[65] = test system: UACC-257
[66] = test system: UACC-62
[67] = test system: UO-31

Measured: GI50

CCCCCCCC(CC(=O)NC(CO)C(=O)NC(CO)CC(C)C)OC(=O)CC(CCCCCCC)OC(=O)CC(CCCCCCC)OC1OC(C)C(O)C(OC2OC(C)C(O)C(O)C2O)C1O (configuration not stated)
inactive: [1] 14.3 µM | [2] 18.7 µM | [3] 15.8 µM | [4] 12.2 µM | [5] 14.5 µM | [6] 18.4 µM | [7] 3.37 µM | [8] 8.87 µM | [9] 16 µM | [10] 3.83 µM | [11] 10.9 µM | [12] 12.6 µM | [13] 24.6 µM | [14] 1.52 µM | [15] 7.53 µM | [17] 3.26 µM | [18] 17.6 µM | [19] 18.9 µM | [20] 12 µM | [21] 9.16 µM | [22] 8.45 µM | [23] 12.6 µM | [24] 5.12 µM | [25] 15.7 µM | [26] 11.7 µM | [27] 5.28 µM | [28] 4.84 µM | [29] 5.05 µM | [30] 10.4 µM | [32] 13.2 µM | [33] 6.52 µM | [34] 6.92 µM | [35] 3.06 µM | [36] 9.66 µM | [37] 16.6 µM | [38] 14.3 µM | [39] 6.73 µM | [40] 13 µM | [41] 17.9 µM | [42] 13.9 µM | [43] 12.6 µM | [44] 13.1 µM | [45] 16.3 µM | [46] 12.7 µM | [47] 2.37 µM | [48] 13.7 µM | [49] 8.41 µM | [50] 14 µM | [51] 11.7 µM | [52] 7.94 µM | [53] 3.76 µM | [54] 7.83 µM | [55] 17.6 µM | [56] 14.5 µM | [57] 12.2 µM | [58] 10.5 µM | [59] 20.2 µM | [60] 3.05 µM | [61] 15.7 µM | [62] 10.9 µM | [63] 16.5 µM | [64] 11.1 µM | [65] 12.3 µM | [66] 14.1 µM | [67] 16.6 µM
active: [31] 614 nM
19.7 µM: [16]

Cc1c2cc[n+](C)cc2c(C)c2c1[nH]c1ccc(OC(C)C)cc12
inactive: [2] 12 µM | [3] 3.44 µM | [4] 16.1 µM | [8] 1.39 µM | [11] 2.69 µM | [13] 5.06 µM | [15] 3.77 µM | [17] 2.43 µM | [18] 3.75 µM | [20] 3.01 µM | [21] 4.25 µM | [23] 2.55 µM | [25] 4.72 µM | [26] 2.75 µM | [27] 6.95 µM | [29] 10.4 µM | [30] 2.09 µM | [35] 5.18 µM | [36] 1.97 µM | [38] 2.51 µM | [39] 2.6 µM | [40] 1.98 µM | [42] 3.1 µM | [43] 3.85 µM | [44] 12.9 µM | [47] 7.74 µM | [52] 4.42 µM | [53] 2.56 µM | [54] 1.48 µM | [61] 3.12 µM | [63] 39.3 µM | [65] 2.82 µM | [66] 2.71 µM | [67] 27.3 µM
active: [28] 0.875 µM | [49] 0.418 µM | [51] 1.01 µM | [56] 0.542 µM | [58] 0.384 µM
> 58.2 µM: [16]
